Test results as given in PMC9774939, “Optimization of Pyrazole Compounds as Antibiotic Adjuvants Active against Colistin- and Carbapenem-Resistant Acinetobacter baumannii” (Antibiotics, 2022).
In brackets after ≈: the same amount, converted by molar mass.

Assays:
[1] = tested on: eight reference strains, Gram-positive and Gram-negative; experiment: Agar diffusion test, direct antibacterial activity; format: cell-based; conditions: for direct-acting antibacterial activity (agar diffusion): eight reference strains; for growth inhibition zone diameter: agar diffusion, on Gram-positive organisms
Method: Compounds 3–40, 42, 44–47, and 49 (Scheme 1, Scheme 2, Scheme 3, Scheme 4 and Scheme 5) were subjected to a detailed investigation of their direct and synergistic antibacterial activity and potential cytotoxicity by using several methods. The direct antibacterial activity of these compounds was determined using both agar diffusion and broth microdilution methods. The former was initially used to identify potentially active compounds and was tested on eight reference strains, with representatives of both Gram-positive and Gram-negative clinically relevant bacterial species or genera (Figure 4).
The compounds were provided as powders and dissolved in 100% DMSO at a final concentration of 50 mg/mL. When a compound was not soluble, DMSO was further added to lower the concentration to 25 mg/mL or, when necessary, 12.5 or 6.25 mg/mL, until the compound was completely solubilized. The primary screen used in the evaluation of the direct antibacterial activity through an agar diffusion test was implemented on a 8-channel, automated liquid-handling platform (PerkinElmer Janus Integrator, Waltham, Mass.), which was located under a custom-made class 1000 laminar flow cabinet (Faster, Cornaredo, Italy). Briefly, 1-well plates (Thermo Fisher Scientific, Waltham, Mass.), previously filled with Mueller–Hinton Agar medium, were inoculated with a suspension of the bacterium in a sterile 0.9% NaCl solution containing 1.5 × 10^8 CFU/mL, using a sterile swab. Indicator organisms included 4 Gram-positive (Bacillus subtilis ATCC 6633, Enterococcus faecalis ATCC 29212, Staphylococcus epidermidis ATCC 14990, and Streptococcus pyogenes ATCC 12344) and 4 Gram-negative (Escherichia coli CCUG^T, Klebsiella pneumoniae ATCC 13833, Pseudomonas aeruginosa ATCC 27853, and Acinetobacter baumannii ATCC 17978) strains, which were routinely propagated using Mueller–Hinton Agar plates. In total, 2 μL of each solution of compounds was dispensed on the plate surface (corresponding to 100, 50, 25, or 12.5 μg of compound according to its solubility). The controls included the solvent (100% DMSO), kanamycin, piperacillin, ceftazidime, vancomycin, and teicoplanin. The results were recorded as the diameter of the growth inhibition zone. The inhibition zones of the controls (max variation from expected diameter, ± 1 mm) were used as the validation criteria. The assays were performed at least in duplicate, and the position in which a single compound was spotted on the plate was randomly modified in any successive experiment.

[2] = tested on: bacterial reference strains; experiment: Broth microdilution MIC, direct activity; format: cell-based
Method: (§1) The minimum inhibitory concentration (MIC) and minimum bactericidal concentration (MBC) of the compounds were determined in triplicate using Mueller–Hinton broth and a bacterial inoculum of 5 × 10^5 CFU/mL, as recommended by the CLSI [26]. The minimum antibacterial concentration (MAC) of the compounds was determined in the presence of a fixed and subinhibitory concentration of colistin (as mentioned above).

[3] = tested on: Acinetobacter baumannii ATCC 17978; experiment: MAC determination in the presence of subinhibitory colistin; format: cell-based; design: key to MAC Aba: -: No synergistic activity; conditions: for MAC Aba: in the presence of 0.5 × MIC colistin; for MIC/MAC Ratio Aba: minimal ratio of MIC of compound alone to MAC with 0.5 × MIC colistin
Method: as §1

[4] = tested on: Escherichia coli CCUG^T; experiment: as above; format: cell-based; design: key to MAC Eco: -: No synergistic activity; conditions: for MAC Eco: in the presence of 0.5 × MIC colistin; for MIC/MAC Ratio Eco: minimal ratio of MIC of compound alone to MAC with 0.5 × MIC colistin
Method: as §1

[5] = tested on: Klebsiella pneumoniae ATCC 13833; experiment: as above; format: cell-based; design: key to MAC Kpn: -: No synergistic activity; conditions: for MAC Kpn: in the presence of 0.5 × MIC colistin; for MIC/MAC Ratio Kpn: minimal ratio of MIC of compound alone to MAC with 0.5 × MIC colistin
Method: as §1

[6] = tested on: Enterococcus faecalis; experiment: Broth microdilution MIC; format: cell-based; conditions: compound alone
Method: as §1

[7] = tested on: Staphylococcus aureus; experiment: Broth microdilution MIC; format: cell-based; conditions: compound alone
Method: as §1

[8] = tested on: Streptococcus pyogenes; experiment: Broth microdilution MIC; format: cell-based; conditions: compound alone
Method: as §1

[9] = tested on: Bacillus subtilis; experiment: Broth microdilution MIC; format: cell-based; conditions: compound alone
Method: as §1

SMILES	direct-acting antibacterial activity (agar diffusion) [1]	MIC [2] [µg/mL]	melting point [°C]	MAC Aba [3]	MIC/MAC Ratio Aba [3]	MAC Eco [4]	MAC Kpn [5]	MIC/MAC Ratio Kpn [5]	MIC/MAC Ratio Eco [4]	growth inhibition zone diameter [1]	MIC [6] [µg/mL]	MIC [7] [µg/mL]	MIC [8] [µg/mL]	MIC [9] [µg/mL]
O=C(O)CNC(=O)c1cnn(-c2ccccc2)c1-n1cccc1 [Compound 15, [[[1-Phenyl-5-(1H-pyrrol-1-yl)-1H-pyrazol-4-yl]carbonyl]amino]acetic Acid]	broad-spectrum, though moderate, direct-acting antibacterial activity	≥ 512	191 to 194											
C[C@H](NC(=O)c1cnn(-c2ccccc2)c1-n1cccc1)C(=O)O [Compound 16, (S)-2-[[[1-Phenyl-5-(1H-pyrrol-1-yl)-1H-pyrazol-4-yl]carbonyl]amino]propanoic Acid]	broad-spectrum, though moderate, direct-acting antibacterial activity	≥ 512	142 to 145											
CC(C)[C@H](NC(=O)c1cnn(-c2ccccc2)c1-n1cccc1)C(=O)O [Compound 17, (S)-3-Methyl-2-[[[1-phenyl-5-(1H-pyrrol-1-yl)-1H-pyrazol-4-yl]carbonyl]amino]butanoic Acid]	broad-spectrum, though moderate, direct-acting antibacterial activity	≥ 512	150 to 152											
C[C@H](NC(=O)CNC(=O)c1cnn(-c2ccccc2)c1-n1cccc1)C(=O)O [Compound 19, N-[N-[[1-Phenyl-5-(1H-pyrrol-1-yl)-1H-pyrazol-4-yl]carbonyl]glycyl]-L-alanine]	broad-spectrum, though moderate, direct-acting antibacterial activity	≥ 512	80 to 84											
CC(C)(C)OC(=O)Nc1c(C(=O)NCc2ccc(Br)cc2)cnn1-c1ccccc1 [Compound 20, N-(4-Bromobenzyl)-5-(tert-butoxycarbonylamino)-1-phenyl-1H-pyrazole-4-carboxamide]			175 to 176	64 µg/mL	8	-	64 µg/mL	8						
CC(C)(C)OC(=O)Nc1c(C(=O)NCc2ccc(-c3ccc(OC(F)(F)F)cc3)cn2)cnn1-c1ccc([N+](=O)[O-])cc1 [Compound 22, 5-(tert-Butoxycarbonylamino)-1-(4-nitrophenyl)-N-[[5-(4-trifluoromethoxyphenyl)pyridin-2-yl]methyl]-1H-pyrazole-4-carboxamide]			197 to 199	64 µg/mL	8	-	64 µg/mL	8						
Cc1c(C(=O)NC23CC4CC(CC(O)(C4)C2)C3)nn(-c2ccccc2)c1-n1cccc1 [Compound 27, N-(Adamantan-3-ol-1-yl)-4-methyl-1-phenyl-5-(1H-pyrrol-1-yl)-1H-pyrazole-3-carboxamide]			137 to 138	-		32 µg/mL	32 µg/mL	16	16					
Cc1c(C(=O)N2CCN(C)CC2)nn(-c2ccc(Cl)cc2)c1-n1cccc1 [Compound 28, [1-(4-Chlorophenyl)-4-methyl-5-(1H-pyrrol-1-yl)-1H-pyrazol-3-yl](4-methylpiperazin-1-yl)methanone]			178 to 182	64 µg/mL	8	64 µg/mL	64 µg/mL	8	8					
Cc1c(C(=O)N[C@@H](Cc2ccccc2)C(=O)OC(C)(C)C)nn(-c2c(Cl)cc(Cl)cc2Cl)c1-n1c(C)ccc1C [Compound 39, tert-Butyl (S)-3-Phenyl-2-[[[4-methyl-1-(2,4,6-trichlorophenyl)-5-(2,5-dimethyl-1H-pyrrol-1-yl)-1H-pyrazol-3-yl]carbonyl]amino]propanoate]			72 to 81	32 µg/mL	16	-	-							
Cc1c(C(=O)Nc2ccc(C(=O)O)cc2)nn(-c2ccc(Cl)cc2)c1-n1cccc1 [Compound 40, 4-[[[1-(4-Chlorophenyl)-4-methyl-5-(1H-pyrrol-1-yl)-1H-pyrazol-3-yl]carbonyl]amino]benzoic Acid]			> 250							up to 18 mm	32 (≈ 76 µM)	32 (≈ 76 µM)	16 (≈ 38 µM)	32 (≈ 76 µM)
Cc1c(C(=O)Nc2cccc(C(=O)O)c2)nn(-c2ccc(Cl)cc2)c1-n1cccc1 [Compound 42, 3-[[[1-(4-Chlorophenyl)-4-methyl-5-(1H-pyrrol-1-yl)-1H-pyrazol-3-yl]carbonyl]amino]benzoic Acid]	broad-spectrum, though moderate, direct-acting antibacterial activity	≥ 512	248 to 250							up to 18 mm	32 (≈ 76 µM)	32 (≈ 76 µM)	16 (≈ 38 µM)	32 (≈ 76 µM)
Cc1c(C(=O)Nc2ccccc2C(=O)O)nn(-c2ccc(Cl)cc2)c1-n1cccc1 [Compound 44, 2-[[[1-(4-Chlorophenyl)-4-methyl-5-(1H-pyrrol-1-yl)-1H-pyrazol-3-yl]carbonyl]amino]benzoic Acid]			270 to 272							up to 18 mm	32 (≈ 76 µM)	32 (≈ 76 µM)	16 (≈ 38 µM)	32 (≈ 76 µM)
CCOC(=O)NS(=O)(=O)c1ccc(NC(=O)c2nn(-c3ccc(Cl)cc3)c(-n3cccc3)c2C)cc1 [Compound 47, Ethyl [[4-[1-(4-Chlorophenyl)-4-methyl-5-(1H-pyrrol-1-yl)-1H-pyrazole-3-carboxamido]phenyl]sulfonyl]carbamate]			188 to 190							up to 18 mm	32 (≈ 60.6 µM)	32 (≈ 60.6 µM)	16 (≈ 30.3 µM)	32 (≈ 60.6 µM)
